Test results as given in patent US6642256B2, “Piperidine derivatives as subtype selective N-Methyl-D-Aspartate antagonists” (Warner-Lambert Company LLC, priority 2000, dated 2003).
Structures can show the parent of a compound that is named as a salt.

System: not given
Test: not given
Conditions: not given

| melting point | Compound |
| --- | --- |
| 254 to 258 °C | O=c1[nH]c2ccc(C3=NOC(CCN4CCC(Cc5ccc(F)cc5)CC4)C3)cc2o1 (centres unmarked) (as salt: HCl) [Example 19, 6-(5-{2-[4-(4-Fluorobenzyl)piperidin-1-yl]ethyl}-4,5-dihydroisoxazol-3-yl)-3H-benzoxazol-2-one] |
| 271 to 276 °C | O=c1[nH]c2ccc(C3=NOC(CN4CCC(Cc5ccc(F)cc5)CC4)C3)cc2s1 (centres unmarked) (as salt: HCl) [Example 16] |
| 224 to 233 °C | O=c1[nH]c2ccc(C3=NOC(CN4CC[C@@H](Cc5ccc(F)cc5)[C@@H](O)C4)C3)cc2o1 (stereo in doubt) (as salt: HCl) [Example 26, 6-{5-[4-(4-Fluorobenzyl)-3-hydroxypiperidin-1-ylmethyl]-4,5-dihydroisoxazol-3-yl}-3H-benzoxazol-2-one] |
| 186 to 191 °C | O=c1[nH]c2ccc(C3=NOC(CN4CCC(C(O)c5ccc(F)cc5)CC4)C3)cc2o1 (centres unmarked) (as salt: HCl) [Example 31, 6-(5-{4-[(4-Fluorophenyl)hydroxymethyl]piperidin-1-ylmethyl}-4,5-dihydroisoxazol-3-yl)-3H-benzoxazol-2-one] |
| 212 to 214 °C | CCOC(=O)C1(Cc2ccc(F)cc2)CCN(CC2CC(c3ccc4[nH]c(=O)oc4c3)=NO2)CC1 (centres unmarked) [Example 24, 4-(4-Fluorobenzyl)-1-[3-(2-oxo-2,3-dihydrobenzoxazol-6-yl)-4,5-dihydroisoxazol-5-ylmethyl]piperidine-4-carboxylic acid ethyl ester] |
| 170 to 178 °C | O=c1[nH]c2ccc(C3=NOC(CN4CCC([S+]([O-])c5ccc(F)cc5)CC4)C3)cc2o1 (centres unmarked) (as salt: HCl) [Example 29, 6-{5-[4-(4-Fluorobenzenesulfinyl)piperidin-1-ylmethyl]-4,5-dihydroisoxazol-3-yl}-3H-benzoxazol-2-one] |
| 146 to 155 °C | COC(=O)C1(CN2CCC(Cc3ccc(F)cc3)CC2)CC(c2ccc3[nH]c(=O)oc3c2)=NO1 (centres unmarked) (as salt: salt) [Example 23, 5-[4-(4-Fluorobenzyl)piperidin-1-ylmethyl]-3-(2-oxo-2,3-dihydrobenzoxazol-6-yl)-4,5-dihydroisoxazole-5-carboxylic acid methyl ester] |
| 195 to 204 °C | O=c1[nH]c2ccc(C3=NOC(CN4CCC(O)(Cc5ccc(F)cc5)CC4)C3)cc2o1 (centres unmarked) (as salt: HCl) [Example 20, 6-{5-[4-(4-Fluorobenzyl)-4-hydroxypiperidin-1-ylmethyl]-4,5-dihydroisoxazol-3-yl}-3H-benzoxazol-2-one] |
| 166 to 170 °C | O=c1[nH]c2ccc(C3=NOC(CN4CCC(O)(Cc5ccccc5)CC4)C3)cc2o1 (centres unmarked) (as salt: HCl) [Example 17, 6-[5-(4-Benzyl-4-hydroxypiperidin-1-ylmethyl)-4,5-dihydroisoxazol-3-yl]-3H-benzoxazol-2-one] |

Target: T1, NR1A/NR2B NMDA receptor subtype (Rattus norvegicus, UniProt P35439+Q00960)
T1 construct: buffy coat membrane fraction was prepared from frozen adult rat forebrains; tissue Zivic-Miller Laboratories, Inc; host or cells: adult rat forebrain membranes
Test: [3H]Ifenprodil binding assay (IFPNR), rat forebrain membranes
Conditions: Table 1, 4 nM [3H]-ifenprodil, read-out: IFPNR (IC50 μM)
Description: b. [^3H]Ifenprodil Binding Assay (IFPNR) Protocol:
Ifenprodil, [phenyl-^3H]-(specific activity, 66.2 Ci/mmol) was purchased from Dupont NEN Research Products (Boston, Mass.). Ifenprodil tartrate was purchased from Research Biochemicals International (Natick, Mass.). HEPES, glutamate and glycine were purchased from Sigma Chemical Co. (St. Louis, Mo.).
All buffers and reagents used in assay incubations or to dissolve drugs were prepared using water purified through a Milli-Q reverse osmosis system (Millipore Corp., Bedford, Mass.) and treated with UV emissions. Prior to use in the assays buffers were further filtered through a sterile Coming filtration unit (Coming Glass Works, Coming, N.Y.) containing a 0.2 micron filter. Buffer used to rinse the membranes on the assay filters was prepared with purified water, but was not refiltered and was stored no longer than 5 days. Stock solutions of the drugs (usually 10 mM) were dissolved in 20 mM HEPES-KOH buffer pH 7.4 (assay buffer) with the addition of 1 to 5 μL of glacial AcOH, if needed to keep them in solution. Eliprodil was used as the reference NMDA antagonist. A stock solution of eliprodil was prepared, and was buffered with the addition of 10% DMSO. All subsequent dilutions from the stock solution were made in buffer.
An extensively washed buffy coat membrane fraction was prepared from frozen adult rat forebrains (Zivic-Miller Laboratories, Inc., Zelienople, Pa.) as described by Coughenour L. L.; Cordon, J. J., J. Pharmacol. Exp. Ther., 1997;280:584-592, and stored at −80° C. On the day of the assay, pellets of the frozen membrane fractions were resuspended in 35 mL of assay buffer at pH 7.4 using a POLYTRON (Kinematica A. G. Company, Littau, Switzerland) mixer at setting 6. After incubation at 37° C. for 30 minutes in a shaking water bath, the homogenate was centrifuged 40,000×g for 10 minutes at 4° C. The pellets were resuspended in fresh buffer and centrifuged 3 more times before final suspension for use in the assay.
(iii) [^3H]Ifenprodil Binding protocol:
Triplicate incubations were carried out in a volume of 0.5 mL in 1.3 mL polypropylene tubes (Marsh Biomedical Products Inc, Rochester, N.Y.) for 2 hours at room temperature. Incubations contained invention compounds, membranes (100-200 μg protein) and 4 nM [^3H]-ifenprodil in 20 mM HEPES-KOH buffer, pH 7.4 (assay buffer). Assays were started by addition of the membranes. Bound radioligand was separated by filtration under reduced pressure using a TOMTEC Mach II, 96-well cell harvester (Tomtec Inc, Orange, Conn.). Filtration was through Whatman GF/B glass fiber filters (Whatman Ltd., Maidstone, England), which had been soaked for at least 15 minutes in 0.3% polyethylenimine and allowed to air dry. The filters were rinsed with 3 mL of ice cold assay buffer within 6 seconds. Air was allowed to pass through the filters for an additional 10 seconds to remove residual moisture. The filter mat was supported on a cold (−20° C.) TEFLON (E. I. Du Pont de Nemours and Company, Wilmington, Del.) coated support, and filters from individual wells were separated and placed in Mini Poly-Q vials (Becklman Instruments Inc, Fullerton, Calif.) and filled with 4 mL of scintillation cocktail (Beckman Ready Protein^+). Radioactivity retained on the filter was determined by liquid scintillation spectrophotometry. Nonspecific binding was defined as the binding in the presence of […] ifenprodil. Ninety percent of the total binding of ifenprodil was specific binding at the NR1A/NR2B NMDA receptor subtype active site (as opposed to binding at a remote site).
Binding curves were statistically analyzed for a best 1- or 2-site competition fit using GRAPHPAD PRISM software (GraphPad Software Inc, San Diego, Calif.), a computer program used to analyze and graph scientific data. The normalized data was fitted by nonweighted nonlinear regression to either [formula]
Control data was entered as 100%, and no parameters were constrained. […]

T1 sequence (Q00960 27-1482, other chains not shown): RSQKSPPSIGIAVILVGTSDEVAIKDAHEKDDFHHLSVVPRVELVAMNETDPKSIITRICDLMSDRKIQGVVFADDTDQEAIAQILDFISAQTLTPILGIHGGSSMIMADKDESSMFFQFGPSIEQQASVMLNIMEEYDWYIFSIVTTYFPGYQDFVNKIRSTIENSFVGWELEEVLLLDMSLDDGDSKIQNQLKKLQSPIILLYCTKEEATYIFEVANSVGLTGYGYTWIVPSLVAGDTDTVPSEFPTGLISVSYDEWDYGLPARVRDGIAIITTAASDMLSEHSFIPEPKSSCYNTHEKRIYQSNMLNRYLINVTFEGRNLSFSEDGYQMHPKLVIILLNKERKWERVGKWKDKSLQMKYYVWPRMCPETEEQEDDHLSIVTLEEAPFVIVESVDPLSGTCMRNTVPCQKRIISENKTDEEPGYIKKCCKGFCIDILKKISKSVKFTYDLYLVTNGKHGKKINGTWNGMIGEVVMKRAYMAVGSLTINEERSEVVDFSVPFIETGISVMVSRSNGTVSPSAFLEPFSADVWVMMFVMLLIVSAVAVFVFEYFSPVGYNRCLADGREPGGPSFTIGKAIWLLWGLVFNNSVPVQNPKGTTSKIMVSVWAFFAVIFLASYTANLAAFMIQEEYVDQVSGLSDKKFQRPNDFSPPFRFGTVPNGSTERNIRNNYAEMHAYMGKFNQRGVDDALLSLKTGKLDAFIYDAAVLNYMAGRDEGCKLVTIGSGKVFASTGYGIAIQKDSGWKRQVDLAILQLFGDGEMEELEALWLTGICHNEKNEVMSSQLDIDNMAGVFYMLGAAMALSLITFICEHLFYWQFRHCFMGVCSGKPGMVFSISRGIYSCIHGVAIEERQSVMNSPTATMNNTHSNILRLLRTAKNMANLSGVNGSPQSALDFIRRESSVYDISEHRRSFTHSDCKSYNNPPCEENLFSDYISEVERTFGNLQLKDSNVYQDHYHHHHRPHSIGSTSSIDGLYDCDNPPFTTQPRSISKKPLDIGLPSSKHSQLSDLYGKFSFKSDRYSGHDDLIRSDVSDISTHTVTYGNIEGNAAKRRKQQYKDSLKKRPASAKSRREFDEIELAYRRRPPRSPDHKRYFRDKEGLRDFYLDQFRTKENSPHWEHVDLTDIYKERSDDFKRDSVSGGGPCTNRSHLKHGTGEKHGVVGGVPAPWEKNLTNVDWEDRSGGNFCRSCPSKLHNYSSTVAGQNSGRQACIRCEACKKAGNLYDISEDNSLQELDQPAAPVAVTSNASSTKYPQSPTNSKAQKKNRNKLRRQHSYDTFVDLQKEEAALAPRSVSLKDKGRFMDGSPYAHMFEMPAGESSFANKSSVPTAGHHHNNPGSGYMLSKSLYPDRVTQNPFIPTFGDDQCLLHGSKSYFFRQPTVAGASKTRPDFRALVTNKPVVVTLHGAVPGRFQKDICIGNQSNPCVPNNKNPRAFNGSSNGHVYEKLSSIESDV

| IC50 | Compound |
| --- | --- |
| 0.03 µM | O=c1[nH]c2ccc(C3=NOC(CN4CCC(Cc5ccc(F)cc5)CC4)C3)cc2o1 (racemic) [Example 3, 6-{5-[4-(4-Fluorobenzyl)piperidin-1-ylmethyl]-4,5-dihydroisoxazol-3-yl}-3H-benzoxazol-2-one hydrochloride] |

Same assay, conditions: Table 2, 4 nM [3H]-ifenprodil, read-out: IFPNR IC50 μm

| IC50 | Compound |
| --- | --- |
| 0.394 µM | O=c1[nH]c2ccc(C3=NCC(CN4CCC(Cc5ccc(F)cc5)CC4)S3)cc2o1 (centres unmarked) [Example 12, 6-{5-[4-(4-Fluorobenzyl)piperidin-1-ylmethyl]-4,5-dihydrothiazol-2-yl}-3H-benzoxazol-2-one] |
| 0.066 µM | S=c1[nH]c2ccc(-c3cnc(CN4CCC(Cc5ccccc5)CC4)s3)cc2[nH]1 [Example 8, 5-[2-(4-Benzylpiperidin-1-ylmethyl)thiazol-5-yl]-1,3-dihydrobenzimidazole-2-thione] |
| > 1 µM | O=C1Cc2cc(-c3cnc(CN4CCC(Cc5ccccc5)CC4)o3)ccc2N1 [Example 11, 5-[2-(4-Benzylpiperidin-1-ylmethyl)oxazol-5-yl]-1,3-dihydroindol-2-one] |
| 0.101 µM | O=c1[nH]c2ccc(C3=NCC(CN4CCC(Cc5ccccc5)CC4)S3)cc2o1 (centres unmarked) [Example 13, 6-[5-(4-Benzylpiperidin-1-ylmethyl)-4,5-dihydrothiazol-2-yl]-3H-benzoxazol-2-one] |
| 0.54 µM | O=c1[nH]c2ccc(-c3cnc(CN4CCC(Cc5ccc(F)cc5)CC4)s3)cc2o1 [Example 6, 6-{2-[4-(4-Fluorobenzyl)piperidin-1-ylmethyl]thiazol-5-yl}-3H-benzoxazol-2-one] |
| 0.45 µM | O=c1[nH]c2ccc(-c3cnc(CN4CCC(Cc5ccc(F)cc5)CC4)s3)cc2s1 [Example 7, 6-{2-[4-(4-Fluorobenzyl)piperidin-1-ylmethyl]thiazol-5-yl}-3H-benzothiazol-2-one] |
| > 1 µM | O=c1[nH]c2ccc(-c3cnc(CN4CCC(Cc5ccc(F)cc5)CC4)o3)cc2s1 [Example 9, 6-{2-[4-(4-Fluorobenzyl)piperidin-1-ylmethyl]oxazol-5-yl}-3H-benzothiazol-2-one] |
| > 1 µM | O=c1[nH]c2ccc(-c3cnc(CN4CCC(Cc5ccccc5)CC4)o3)cc2o1 [Example 10, 6-[2-(4-Benzylpiperidin-1-ylmethyl)oxazol-5-yl]-3H-benzoxazol-2-one] |

Same assay, conditions: Table 3, 4 nM [3H]-ifenprodil, read-out: IFPNR IC50

| IC50 | Compound |
| --- | --- |
| > 1 µM | Cc1noc(CN2CCC(Cc3ccccc3)CC2)c1-c1ccc2[nH]c(=O)oc2c1 [Example 2, 6-[5-(4-Benzylpiperidin-1-ylmethyl)-3-methylisoxazol-4-yl]-3H-benzoxazol-2-one] |
| 0.008 µM | O=c1[nH]c2ccc(C3=NOC(CN4CCC(O)(Cc5ccc(F)cc5)CC4)C3)cc2o1 (centres unmarked) [Example 20, 6-{5-[4-(4-Fluorobenzyl)-4-hydroxypiperidin-1-ylmethyl]-4,5-dihydroisoxazol-3-yl}-3H-benzoxazol-2-one] |
| 0.006 µM | O=c1[nH]c2ccc(C3=NOC(CN4CCC(O)(Cc5ccccc5)CC4)C3)cc2o1 (centres unmarked) [Example 17, 6-[5-(4-Benzyl-4-hydroxypiperidin-1-ylmethyl)-4,5-dihydroisoxazol-3-yl]-3H-benzoxazol-2-one] |
| 0.4 µM | O=c1[nH]c2ccc(C3=NOC(CCN4CCC(Cc5ccc(F)cc5)CC4)C3)cc2o1 (centres unmarked) [Example 19, 6-(5-{2-[4-(4-Fluorobenzyl)piperidin-1-yl]ethyl}-4,5-dihydroisoxazol-3-yl)-3H-benzoxazol-2-one] |

Same assay, conditions: Table 4, 4 nM [3H]-ifenprodil, read-out: IFPNR IC50

| IC50 | Compound |
| --- | --- |
| 0.6 µM | O=c1[nH]c2ccc(C3=NOC(CN4CCC([S+]([O-])c5ccc(F)cc5)CC4)C3)cc2o1 (centres unmarked) [Example 29, 6-{5-[4-(4-Fluorobenzenesulfinyl)piperidin-1-ylmethyl]-4,5-dihydroisoxazol-3-yl}-3H-benzoxazol-2-one] |
| > 1 µM | O=c1[nH]c2ccc(C3=NOC(CN4CCC(C(O)c5ccc(F)cc5)CC4)C3)cc2o1 (centres unmarked) [Example 31, 6-(5-{4-[(4-Fluorophenyl)hydroxymethyl]piperidin-1-ylmethyl}-4,5-dihydroisoxazol-3-yl)-3H-benzoxazol-2-one] |

Same assay, conditions: Table 5, 4 nM [3H]-ifenprodil, read-out: IFPNR IC50

| IC50 | Compound |
| --- | --- |
| 0.002 µM | O=c1[nH]c2ccc(C3=NOC(CN4CCC(Cc5ccc(F)cc5)CC4)C3)cc2s1 (centres unmarked) [Example 16] |
| 0.023 µM | O=c1[nH]c2ccc(C3=NOC(CN4CC[C@@H](Cc5ccc(F)cc5)[C@@H](O)C4)C3)cc2o1 (stereo in doubt) [Example 26, 6-{5-[4-(4-Fluorobenzyl)-3-hydroxypiperidin-1-ylmethyl]-4,5-dihydroisoxazol-3-yl}-3H-benzoxazol-2-one] |
